Results as given in article PMC7915765, “Biochemical Characterization, Specificity and Inhibition Studies of HTLV-1, HTLV-2, and HTLV-3 Proteases” (Life, 2021).
“Also recorded” adds a separate entry of the source. Read-outs that look alike come from different tables or passages of the source.

How the values were obtained:
HTLV-2 PR [1] = target: T1, HTLV-2 PR (Human T-cell leukemia virus 2, UniProt P03363); test: Inhibition study with HIV-1 PIs, HTLV-2 PR; format: biochemical, human T-cell leukemia virus type 2; design: made in house; host or cells: E. coli BL21(DE3); conditions: inhibitor 1 µM final, substrate HTLV-2 MA/CA 0.40–0.43 mM, DMSO control = 100%, n = 2
Experimental: The inhibitors were dissolved in DMSO.

HTLV-3 PR [2] = target: T2, HTLV-3 PR (Human T-cell leukemia virus 3, UniProt Q4U0X6); test: Inhibition study with HIV-1 PIs, HTLV-3 PR; format: biochemical; design: made in house; host or cells: E. coli BL21(DE3), pET11a; conditions: inhibitor 1 µM final, substrate HTLV-3 MA/CA 0.40–0.43 mM, DMSO control = 100%, n = 2
Experimental: The IB-268 (KTKVL-r-VVQPK) and IB-269 (APQVL-r-PVMHP) reduced peptide bond (-r-)-containing inhibitors, which were synthesized by Dr. Ivo Blaha (Ferring Leciva, Prague, Czech Republic).
The reaction mixtures were prepared to contain 4.8 µL of substrate (in 0.40–0.43 mM final concentration), 0.2 µL of inhibitor, 5 µL of the enzyme, and 10 µL of a 2× incubation buffer. The substrates representing HTLV-2 and HTLV-3 MA/CA cleavage sites were used for HTLV-2 and HTLV-3 PRs, respectively. In the case of HIV-1 PIs, we applied 100 µM inhibitor stocks, while 0.5–100 µM stocks of IB-268 and IB-269 were used for screening. The inhibitors were dissolved in DMSO. Therefore, 0.2 µL of DMSO was added to the control samples.

HTLV-2 PR [3] = target: T1, HTLV-2 PR; test: Protease activity assay with oligopeptide substrates (RP-HPLC), HTLV-2 PR; format: biochemical, human T-cell leukemia virus type 2; design: made in house; host or cells: E. coli BL21(DE3); conditions: pH 5.6, 37 °C
From the text: (§1) The oligopeptides representing the naturally occurring matrix/capsid (MA/CA), capsid/nucleocapsid (CA/NC), trans-frame protein/protease (TF1/PR), and PR/p1 cleavage sites of HTLV-1, -2, and -3 PRs were used as substrates. The oligopeptide substrates representing the natural sequences of HTLV PRs were ordered from BioBasic, while the oligopeptide substrates representing naturally occurring cleavage sites of various viruses, or the wild-type, the shortened, and the P4, P3, P2, P1, or P1′ variants of HTLV-1 MA/CA cleavage site (KTKVL*VVQPK) were in-house stocks. All peptides were dissolved in distilled water.
(§2) For kinetic measurements, we applied 10 µL 2× incubation buffer (0.5 M K3PO4, 4 M NaCl, 10 v/v% glycerol, 10 mM DTT, pH 5.6), 5 µL of HTLV-1, HTLV-2, or HTLV-3 PR (final concentration of the active enzyme was in 0.1–34.4 nM), and 0.5–5 µL oligopeptide substrate representing HTLV PR natural cleavage sites (0.05–1.10 mM final concentration). The final volume of the reaction mixture was set to 20 µL with distilled water if it was necessary. The reactions were initiated by the addition of the enzyme, were incubated at 37 °C for 0.5–4 h, and stopped by the addition of 180 µL 1 v/v% TFA. For substrates representing natural cleavage sites of retroviruses other than HTLV-1, -2, and -3 PRs (HIV-1, equine infectious anemia virus (EIAV), Rous sarcoma virus (RSV), mouse mammary tumor virus (MMTV), Mason-Pfizer monkey virus (MPMV), and murine leukemia virus (MuLV) and BLV) in a longer incubation time (24 h) was also applied. The cleavage products were separated by using a Nova-Pack C18 RP-HPLC column (3.9 mm × 150 mm, Waters Associates Inc, Milford, MA, USA) on HPLC (Merck-Hitachi LaChrom). Water-acetonitrile gradient (0–100%) was used for separation in the presence of 0.05% TFA at 2 mL/min flow rate. The kinetic parameters were determined by fitting the data—obtained at less than 20% substrate hydrolysis—to the Michaelis–Menten equation. The Gaussian equation was used to determine pH optimum and exponential growth equation for determination of optimal NaCl concentration, while linear regression was applied to plot the dependence of enzyme activity on temperature. Prism8 software (GraphPad Software Inc., San Diego, CA, USA) was used for evaluation. The kcat/KM catalytic constants were calculated based on the active enzyme concentration, which was determined by active site titration using the method described previously.

HTLV-3 PR [4] = target: T2, HTLV-3 PR; test: Protease activity assay with oligopeptide substrates (RP-HPLC), HTLV-3 PR; format: biochemical, human T-cell leukemia virus type 3; design: made in house; host or cells: E. coli BL21(DE3), pET11a; conditions: pH 5.6, 37 °C
From the text: as §1, §2

HTLV-1 PR [5] = test: Protease activity assay with oligopeptide substrates (RP-HPLC), HTLV-1 PR; format: biochemical, human T-cell leukemia virus type 1; conditions: substrate 0.05–1.10 mM, 2× buffer 0.5 M K3PO4, 4 M NaCl, 10 v/v% glycerol, 10 mM DTT, pH 5.6, 37 °C, 0.5–4 h
From the text: as §1, §2

HTLV-1 PR [6] = conditions: cleavage sites of viruses other than HTLV, retrieved from the literature, ref [28]; cited from earlier work
From the text: Table 2 Catalytic efficiencies of HTLV PRs on different substrates representing natural cleavage site sequences. Cleavage sites are labelled by asterisks within the sequences. Abbreviations: MA (matrix), CA (capsid), NC (nucleocapsid), and TF1 (trans-frame 1). | column: kcat/KM [mM^−1 s^−1] / HTLV-1 PR || Table 3 Catalytic efficiencies of HTLV PRs on different substrates representing natural cleavage site sequences of viruses other than HTLV. Cleavage sites are labelled by an asterisk within the sequences. Abbreviations: MA (matrix), CA (capsid), NC (nucleocapsid), TF (transframe), RT (reverse-transcriptase), and IN (integrase). | column: Substrate; kcat/KM (mM^−1 s^−1) / HTLV-1 PR ^1

HIV-1 PR = conditions: cleavage sites of viruses other than HTLV, retrieved from the literature, ref [28]; cited from earlier work
From the text: Table 3 Catalytic efficiencies of HTLV PRs on different substrates representing natural cleavage site sequences of viruses other than HTLV. Cleavage sites are labelled by an asterisk within the sequences. Abbreviations: MA (matrix), CA (capsid), NC (nucleocapsid), TF (transframe), RT (reverse-transcriptase), and IN (integrase). | column: kcat/KM (mM^−1 s^−1) / HIV-1 PR ^1

HTLV-1 PR [7] = conditions: ref [28], cited from earlier work; for activity of mutant (in words): HTLV-1 PR mutants, L57G with HTLV-1 CA/NC substrate (KTKVL*VVQPK)
From the text: Table 5 Effects of protease mutations on autoproteolytic activity of HTLV PRs. | column: Self-Processing || We prepared mutant HTLV-2 and HTLV-3 PRs, which contained mutations that were introduced previously to HTLV-1 PR to study its self-processing capability. The rationale behind the former mutation design was to prepare mutant HTLV-1 PRs that contain HIV-1-like residues in the flap region (57th and 59th) or at the active site (37th and 67th). The herein studied enzymes also contained the same mutations in the corresponding positions (Figure 10). All modified residue constitutes a part of substrate binding sites (Table 4).

[8] = natural HTLV cleavage sites, substrate 0.05–1.10 mM, 2× buffer 0.5 M K3PO4, 4 M NaCl, 10 v/v% glycerol, 10 mM DTT, 0.5–4 h
[9] = cleavage sites of viruses other than HTLV, longer incubation time (24 h) also applied

T1 sequence (P03363 447-571): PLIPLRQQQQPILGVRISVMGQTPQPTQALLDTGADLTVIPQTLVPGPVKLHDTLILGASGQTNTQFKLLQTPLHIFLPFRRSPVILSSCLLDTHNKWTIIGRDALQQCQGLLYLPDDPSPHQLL
T2 sequence (Q4U0X6 431-553): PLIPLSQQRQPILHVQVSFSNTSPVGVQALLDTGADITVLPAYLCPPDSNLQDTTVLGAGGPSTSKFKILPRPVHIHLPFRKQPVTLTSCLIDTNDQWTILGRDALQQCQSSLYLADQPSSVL

What does the source list for O=C1N(Cc2ccc(CO)cc2)[C@H](Cc2ccccc2)[C@H](O)[C@@H](O)[C@@H](Cc2ccccc2)N1Cc1ccc(CO)cc1 [DMP-323]?
loss of activity (HTLV-2 PR [1]): < 50%; loss of activity (HTLV-3 PR [2]): < 50%

Which loss of activity (HTLV-2 PR [1]) does the source give for COC(=O)N[C@H](C(=O)N[C@@H](Cc1ccccc1)[C@@H](O)CN(Cc1ccc(-c2ccccn2)cc1)NC(=O)[C@@H](NC(=O)OC)C(C)(C)C)C(C)(C)C [atazanavir] here?
The loss of activity was < 50%.

What about the loss of activity (HTLV-3 PR [2]) of the same molecule?
The loss of activity was < 50%.

For CC(C)(C)NC(=O)[C@@H]1C[C@@H]2CCCC[C@@H]2CN1C[C@@H](O)[C@H](Cc1ccccc1)NC(=O)[C@H](CC(N)=O)NC(=O)c1ccc2ccccc2n1 [saquinavir], which loss of activity (HTLV-2 PR [1]) is on record?
The loss of activity was < 50%.

And the loss of activity (HTLV-3 PR [2])?
The loss of activity was < 50%.

For “ASQCL*PILHP [HTLV-3 MA/CA, oligopeptide substrate ASQCL*PILHP]”, which kcat/KM (HTLV-2 PR [3]; [8]) is on record?
The kcat/KM was 2600 ± 400 M⁻¹ s⁻¹.

What about the kcat/KM (HTLV-3 PR [4]; [8]) of the same molecule?
The kcat/KM was 19700 ± 4400 M⁻¹ s⁻¹.

What about the kcat/KM (HTLV-1 PR [5]) of the same molecule?
The kcat/KM was 40900 ± 10400 M⁻¹ s⁻¹.

For “KNKIL*MIQPK [HTLV-3 CA/NC, oligopeptide substrate KNKIL*MIQPK]”, which kcat/KM (HTLV-1 PR [5]) is on record?
The kcat/KM was “not cleaved”.

What does the source list for “PHQLL*PIATP [HTLV-2 PR/P1, oligopeptide substrate PHQLL*PIATP]”?
kcat/KM (HTLV-2 PR [3]; [8]): 92200 ± 41400 M⁻¹ s⁻¹; kcat/KM (HTLV-3 PR [4]; [8]): 7500 ± 2700 M⁻¹ s⁻¹; kcat/KM (HTLV-1 PR [5]): 10700 ± 4800 M⁻¹ s⁻¹

With “PRTIL*PVIPL [HTLV-3 TF1/PR, oligopeptide substrate PRTIL*PVIPL]” as the molecule, how does the kcat/KM (HTLV-1 PR [5]) read?
Its kcat/KM is 109800 ± 29300 M⁻¹ s⁻¹.

Which kcat/KM (HTLV-2 PR [3]; [8]) does the source give for “PSKVL*PVLAP [HTLV-3 PR/P1, oligopeptide substrate PSKVL*PVLAP]” here?
Its kcat/KM is 2100 ± 300 M⁻¹ s⁻¹.

What about the kcat/KM (HTLV-3 PR [4]; [8]) of the same molecule?
Its kcat/KM is 22600 ± 5800 M⁻¹ s⁻¹.

And the kcat/KM (HTLV-1 PR [5])?
Its kcat/KM is 7000 ± 2600 M⁻¹ s⁻¹.

For “SPRTIL*PLIP [HTLV-2 TF1/PR, oligopeptide substrate SPRTIL*PLIP]”, which kcat/KM (HTLV-2 PR [3]; [8]) is on record?
The kcat/KM was 132500 ± 42500 M⁻¹ s⁻¹.

What about the kcat/KM (HTLV-3 PR [4]; [8]) of the same molecule?
The kcat/KM was 5000 ± 1100 M⁻¹ s⁻¹.

What about the kcat/KM (HTLV-1 PR [5]) of the same molecule?
Its kcat/KM is 4900 ± 1100 M⁻¹ s⁻¹.

Which kcat/KM (HTLV-1 PR [6]) does the source give for “TSTLL*IENSS [MuLV RT/IN, oligopeptide substrate TSTLL*IENSS]” here?
The kcat/KM was “not cleaved”.

And the kcat/KM (HTLV-2 PR [3]; [9])?
Its kcat/KM is “not cleaved”.

What about the kcat/KM (HTLV-3 PR [4]; [9]) of the same molecule?
The kcat/KM was “not cleaved”.

And the kcat/KM (HIV-1 PR)?
The kcat/KM was “not cleaved”.

With “TTQCF*PILHP [HTLV-2 MA/CA, oligopeptide substrate TTQCF*PILHP]” as the molecule, how does the kcat/KM (HTLV-2 PR [3]; [8]) read?
The kcat/KM was 4300 ± 500 M⁻¹ s⁻¹.

And the kcat/KM (HTLV-3 PR [4]; [8])?
The kcat/KM was 37800 ± 20200 M⁻¹ s⁻¹.

And the kcat/KM (HTLV-1 PR [5])?
Its kcat/KM is 14400 ± 4300 M⁻¹ s⁻¹.

For “VSFNF*PQITL [HIV-1 TF/PR, oligopeptide substrate VSFNF*PQITL]”, which kcat/KM (HTLV-1 PR [6]) is on record?
Its kcat/KM is “not cleaved”.

And the kcat/KM (HTLV-2 PR [3]; [9])?
Its kcat/KM is “not cleaved”.

And the kcat/KM (HTLV-3 PR [4]; [9])?
The kcat/KM was “not cleaved”.

What about the kcat/KM (HIV-1 PR) of the same molecule?
The kcat/KM was 6900 M⁻¹ s⁻¹.

With “VSQNY*PIVQ [HIV-1 MA/CA, oligopeptide substrate VSQNY*PIVQ]” as the molecule, how does the kcat/KM (HTLV-1 PR [6]) read?
The kcat/KM was “not cleaved”.

What about the kcat/KM (HTLV-2 PR [3]; [9]) of the same molecule?
Its kcat/KM is “not cleaved”.

And the kcat/KM (HTLV-3 PR [4]; [9])?
Its kcat/KM is “not cleaved”.

And the kcat/KM (HIV-1 PR)?
The kcat/KM was 45300 M⁻¹ s⁻¹.

B1: HTLV-1 L57G (protein, UniProt P10274 450-574, looked up, variant L57G)
Protease: PVIPLDPARRPVIKAQVDTQTSHPKTIEALLDTGADMTVLPIALFSSNTPLKNTSVGGAGGQTQDHFKLTSLPVLIRLPFRTTPIVLTSCLVDTKNNWAIIGRDALQQCQGVLYLPEAKRPPVIL
modifications: Protease
For B1, which “activity of mutant (in words)” value (HTLV-1 PR [7]) is on record?
Its value is “inefficient enzyme; also recorded: did not hydrolyze the CA/NC cleavage site peptide”.

B2: HTLV-1 F67Q (protein, UniProt P10274 450-574, looked up, variant F67Q)
Protease: PVIPLDPARRPVIKAQVDTQTSHPKTIEALLDTGADMTVLPIALFSSNTPLKNTSVLGAGGQTQDHQKLTSLPVLIRLPFRTTPIVLTSCLVDTKNNWAIIGRDALQQCQGVLYLPEAKRPPVIL
modifications: Protease
Which “activity of mutant (in words)” value (HTLV-1 PR [7]) does the source give for B2 here?
The value was “not tolerated”.

What about the self-processing (HTLV-1 PR [7]; HTLV-1 PR, designed and characterized previously) of the same molecule?
The self-processing was “no”.

B3: HTLV-1 A59I (protein, UniProt P10274 450-574, looked up, variant A59I)
Protease: PVIPLDPARRPVIKAQVDTQTSHPKTIEALLDTGADMTVLPIALFSSNTPLKNTSVLGIGGQTQDHFKLTSLPVLIRLPFRTTPIVLTSCLVDTKNNWAIIGRDALQQCQGVLYLPEAKRPPVIL
modifications: Protease
For B3, which “activity of mutant (in words)” value (HTLV-1 PR [7]) is on record?
The value was “undetectable activity”.
